Several values for one entry are separate records, joined by “and”; a condition that tells them apart may be missing. Equal values may be shown once. Marks after values point to notes of the source that are not given here.
Legend:
CYP3A4 [1] = assay: Study 2
CYP2D6 [2] = target: T1, CYP2D6 (Homo sapiens, UniProt P10635); assay: Study 2; conditions: for CL/F: mean ± SD; for Increase of exposure (AUC) by esmethadone: dextromethorphan + esmethadone 75 mg vs dextromethorphan alone; for Cmax: po
CYP1A2 [3] = assay: in vitro; format: in vitro ADME; conditions: human
[4] = cited from earlier work
[5] = target: human recombinant UGT2B15 (Homo sapiens, UniProt P54855); assay: Inhibition of UGT2B15 in Supersomes
UGT1A6 = UGT1A6 (Homo sapiens, UniProt P19224); assay: Inhibition of UGT1A6 in human liver microsomes; conditions: HLM
CYP2C8 [6] = target: T2, CYP2C8 (Homo sapiens, UniProt P10632); assay: biochemical
T2 sequence (P10632 whole entry): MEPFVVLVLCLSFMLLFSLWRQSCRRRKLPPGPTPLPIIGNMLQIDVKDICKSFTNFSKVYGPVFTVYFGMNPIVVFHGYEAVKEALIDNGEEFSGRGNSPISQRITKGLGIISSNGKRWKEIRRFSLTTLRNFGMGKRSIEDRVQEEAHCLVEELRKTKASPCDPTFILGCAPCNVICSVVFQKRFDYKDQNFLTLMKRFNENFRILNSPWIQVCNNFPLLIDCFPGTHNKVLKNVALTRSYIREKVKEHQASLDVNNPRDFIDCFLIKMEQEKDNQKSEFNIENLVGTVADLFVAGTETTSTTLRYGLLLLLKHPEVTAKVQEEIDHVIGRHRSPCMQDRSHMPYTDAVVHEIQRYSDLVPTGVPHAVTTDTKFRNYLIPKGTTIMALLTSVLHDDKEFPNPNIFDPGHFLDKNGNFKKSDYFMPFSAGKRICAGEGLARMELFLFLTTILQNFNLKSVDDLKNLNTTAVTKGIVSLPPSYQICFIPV

CYP2C9 [7] = target: T3, CYP2C9 (Homo sapiens, UniProt P11712); assay: biochemical
T3 sequence (P11712 whole entry): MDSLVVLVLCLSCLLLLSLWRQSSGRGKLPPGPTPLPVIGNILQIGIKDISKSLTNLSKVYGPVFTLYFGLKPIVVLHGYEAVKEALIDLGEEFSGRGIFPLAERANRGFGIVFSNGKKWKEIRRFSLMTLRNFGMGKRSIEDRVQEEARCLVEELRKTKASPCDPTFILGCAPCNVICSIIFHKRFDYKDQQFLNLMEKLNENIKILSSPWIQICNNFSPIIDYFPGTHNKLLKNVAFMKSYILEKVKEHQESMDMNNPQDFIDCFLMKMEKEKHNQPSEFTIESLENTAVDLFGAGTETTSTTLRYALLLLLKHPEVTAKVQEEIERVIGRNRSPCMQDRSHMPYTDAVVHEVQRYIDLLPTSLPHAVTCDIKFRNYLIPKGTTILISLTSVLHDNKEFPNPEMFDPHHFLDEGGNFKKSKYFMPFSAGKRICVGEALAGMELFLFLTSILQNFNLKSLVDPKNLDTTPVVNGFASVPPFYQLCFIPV

UGT1A1 = UGT1A1 (Homo sapiens, UniProt P22309); assay: Inhibition of UGT1A1 in human liver microsomes
CYP2C9 [8] = target: T3, CYP2C9; conditions: HLM, esmethadone 0.2–200 μM
[9] = Microsomal protein binding by equilibrium dialysis; conditions: 5 h at 37 °C in HLM
CYP2B6 [10] = assay: in vitro; format: in vitro ADME; conditions: human
CYP1A2 [11] = target: CYP1A2 (Homo sapiens, UniProt P05177); conditions: HLM, esmethadone 0.2–200 μM
OCT1 = OCT1 (Homo sapiens, UniProt O15245); assay: Uptake transporter assay in transfected HEK293 cells, OCT1 inhibition; format: in vitro ADME
UGT1A9 = UGT1A9 (Homo sapiens, UniProt O60656); assay: Inhibition of UGT1A9 in human liver microsomes
Chain of UGT1A9 (O60656 26-530): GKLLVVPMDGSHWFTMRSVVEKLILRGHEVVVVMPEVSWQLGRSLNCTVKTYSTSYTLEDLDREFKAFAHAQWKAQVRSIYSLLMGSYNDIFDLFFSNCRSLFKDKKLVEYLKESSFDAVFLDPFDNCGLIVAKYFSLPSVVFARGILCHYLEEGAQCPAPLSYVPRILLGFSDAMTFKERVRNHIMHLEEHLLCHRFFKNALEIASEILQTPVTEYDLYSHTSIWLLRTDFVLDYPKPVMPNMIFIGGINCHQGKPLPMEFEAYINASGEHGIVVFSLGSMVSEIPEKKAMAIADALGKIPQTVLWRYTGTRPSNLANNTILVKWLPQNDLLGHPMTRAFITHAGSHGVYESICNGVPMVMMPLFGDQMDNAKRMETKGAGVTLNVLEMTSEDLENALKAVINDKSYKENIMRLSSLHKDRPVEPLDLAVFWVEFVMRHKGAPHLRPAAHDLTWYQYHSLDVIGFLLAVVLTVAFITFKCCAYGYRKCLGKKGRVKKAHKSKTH

CYP3A4 [12] = assay: Study 3
Study 3 = conditions: human, in vivo, 25 mg
CYP2C8 [13] = target: T2, CYP2C8; conditions: HLM, esmethadone 0.2–200 μM
CYP2D6 [14] = target: T1, CYP2D6; assay: Direct inhibition of CYP2D6
[15] = Study 2 treatment-emergent adverse events; conditions: healthy participants, alone or in combination with dextromethorphan and midazolam
P-glycoprotein (P-gp) = P-glycoprotein (P-gp) (Homo sapiens, UniProt P08183); assay: Efflux transporter assay in Caco-2 cells, P-gp inhibition; format: in vitro ADME
UGT1A3 = UGT1A3 (Homo sapiens, UniProt P35503); assay: Inhibition of UGT1A3 in human liver microsomes
Chain of UGT1A3 (P35503 29-534): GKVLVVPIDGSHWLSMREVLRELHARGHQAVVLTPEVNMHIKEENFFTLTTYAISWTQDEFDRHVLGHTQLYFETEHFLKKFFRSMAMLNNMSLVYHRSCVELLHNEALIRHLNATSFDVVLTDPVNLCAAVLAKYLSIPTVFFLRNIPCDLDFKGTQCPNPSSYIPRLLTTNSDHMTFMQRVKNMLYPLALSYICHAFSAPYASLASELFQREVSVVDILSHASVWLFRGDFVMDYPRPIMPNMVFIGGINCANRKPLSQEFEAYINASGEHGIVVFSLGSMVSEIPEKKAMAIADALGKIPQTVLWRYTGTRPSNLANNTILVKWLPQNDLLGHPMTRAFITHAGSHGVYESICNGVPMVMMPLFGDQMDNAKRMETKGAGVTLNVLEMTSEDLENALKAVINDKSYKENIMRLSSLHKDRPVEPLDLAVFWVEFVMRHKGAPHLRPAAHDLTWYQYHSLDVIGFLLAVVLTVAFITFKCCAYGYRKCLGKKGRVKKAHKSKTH

CYP2C19 [16] = target: T4, CYP2C19 (Homo sapiens, UniProt P33261); assay: biochemical
T4 sequence (P33261 whole entry): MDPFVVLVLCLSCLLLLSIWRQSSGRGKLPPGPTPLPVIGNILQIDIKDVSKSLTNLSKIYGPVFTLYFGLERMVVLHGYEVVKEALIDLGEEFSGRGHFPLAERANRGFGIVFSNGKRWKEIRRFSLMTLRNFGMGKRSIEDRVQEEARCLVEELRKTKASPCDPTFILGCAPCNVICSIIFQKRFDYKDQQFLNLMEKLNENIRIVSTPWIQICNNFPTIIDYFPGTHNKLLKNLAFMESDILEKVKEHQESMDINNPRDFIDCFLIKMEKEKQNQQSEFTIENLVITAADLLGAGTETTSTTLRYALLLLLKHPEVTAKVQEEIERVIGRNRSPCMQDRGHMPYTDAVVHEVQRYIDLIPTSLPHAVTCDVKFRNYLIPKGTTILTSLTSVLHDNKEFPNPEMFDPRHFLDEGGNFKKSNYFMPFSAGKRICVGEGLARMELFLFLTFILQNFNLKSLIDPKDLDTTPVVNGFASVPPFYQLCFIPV

UGT1A4 = UGT1A4 (Homo sapiens, UniProt P22310); assay: Inhibition of UGT1A4 in human liver microsomes
Chain of UGT1A4 (P22310 29-534): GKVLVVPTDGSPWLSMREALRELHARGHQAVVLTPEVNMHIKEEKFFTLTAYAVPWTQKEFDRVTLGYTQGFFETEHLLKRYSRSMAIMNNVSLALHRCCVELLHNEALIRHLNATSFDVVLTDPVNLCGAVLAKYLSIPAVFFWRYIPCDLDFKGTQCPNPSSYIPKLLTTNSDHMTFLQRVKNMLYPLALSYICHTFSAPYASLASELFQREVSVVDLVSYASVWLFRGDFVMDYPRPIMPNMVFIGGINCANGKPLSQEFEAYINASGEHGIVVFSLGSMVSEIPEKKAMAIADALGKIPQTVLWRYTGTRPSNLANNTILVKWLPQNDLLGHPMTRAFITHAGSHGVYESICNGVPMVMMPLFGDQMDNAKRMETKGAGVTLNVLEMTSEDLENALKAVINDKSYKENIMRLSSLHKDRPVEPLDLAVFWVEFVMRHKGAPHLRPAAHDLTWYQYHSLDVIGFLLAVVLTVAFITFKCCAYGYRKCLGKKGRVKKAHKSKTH

CYP2C9 [17] = assay: in vitro; format: in vitro ADME; conditions: human
CYP2C19 [18] = target: T4, CYP2C19; conditions: HLM, esmethadone 0.2–200 μM
CYP2C8 [19] = assay: in vitro; format: in vitro ADME; conditions: human
UGT2B7 = UGT2B7 (Homo sapiens, UniProt P16662); assay: Inhibition of UGT2B7 in human liver microsomes
Chain of UGT2B7 (P16662 24-529): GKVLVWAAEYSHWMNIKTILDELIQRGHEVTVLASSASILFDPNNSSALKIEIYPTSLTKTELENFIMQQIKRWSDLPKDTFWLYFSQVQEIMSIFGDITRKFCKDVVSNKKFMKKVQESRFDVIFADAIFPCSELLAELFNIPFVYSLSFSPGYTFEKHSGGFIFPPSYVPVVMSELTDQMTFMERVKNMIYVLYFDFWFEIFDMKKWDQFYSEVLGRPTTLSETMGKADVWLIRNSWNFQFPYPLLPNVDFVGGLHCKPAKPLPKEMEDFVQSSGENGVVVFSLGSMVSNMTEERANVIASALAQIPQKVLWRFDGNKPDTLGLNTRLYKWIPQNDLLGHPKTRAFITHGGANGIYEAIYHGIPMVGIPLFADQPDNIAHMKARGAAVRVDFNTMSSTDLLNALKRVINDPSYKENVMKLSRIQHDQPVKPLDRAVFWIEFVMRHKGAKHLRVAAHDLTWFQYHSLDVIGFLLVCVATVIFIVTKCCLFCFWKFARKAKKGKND

CYP3A4 [20] = assay: CYP3A4 induction in cryopreserved human hepatocytes; format: in vitro ADME; conditions: mean of three donors
CYP2B6 [21] = target: T5, CYP2B6 (Homo sapiens, UniProt P20813); conditions: HLM, esmethadone 0.2–200 μM
T5 sequence (P20813 whole entry): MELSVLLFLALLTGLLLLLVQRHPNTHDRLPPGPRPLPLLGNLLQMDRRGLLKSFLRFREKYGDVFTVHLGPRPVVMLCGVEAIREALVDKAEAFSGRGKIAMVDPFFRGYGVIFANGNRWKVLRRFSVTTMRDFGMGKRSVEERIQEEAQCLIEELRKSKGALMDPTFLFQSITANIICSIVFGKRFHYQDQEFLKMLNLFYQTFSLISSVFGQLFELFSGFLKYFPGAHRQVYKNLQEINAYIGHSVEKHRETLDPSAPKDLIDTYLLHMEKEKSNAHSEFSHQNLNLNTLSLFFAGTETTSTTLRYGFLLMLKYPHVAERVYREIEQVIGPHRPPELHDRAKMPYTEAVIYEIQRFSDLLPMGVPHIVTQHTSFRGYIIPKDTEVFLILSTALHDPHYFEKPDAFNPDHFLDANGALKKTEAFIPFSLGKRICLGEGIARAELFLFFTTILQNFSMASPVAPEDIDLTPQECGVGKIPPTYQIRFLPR

Study 1 = format: in vivo, human; conditions: single 25-mg oral dose of [14C]-esmethadone
CYP2A6 = CYP2A6 (Homo sapiens, UniProt P11509); assay: Direct inhibition of CYP2A6 in human liver microsomes
Chain of CYP2A6 (P11509 whole entry): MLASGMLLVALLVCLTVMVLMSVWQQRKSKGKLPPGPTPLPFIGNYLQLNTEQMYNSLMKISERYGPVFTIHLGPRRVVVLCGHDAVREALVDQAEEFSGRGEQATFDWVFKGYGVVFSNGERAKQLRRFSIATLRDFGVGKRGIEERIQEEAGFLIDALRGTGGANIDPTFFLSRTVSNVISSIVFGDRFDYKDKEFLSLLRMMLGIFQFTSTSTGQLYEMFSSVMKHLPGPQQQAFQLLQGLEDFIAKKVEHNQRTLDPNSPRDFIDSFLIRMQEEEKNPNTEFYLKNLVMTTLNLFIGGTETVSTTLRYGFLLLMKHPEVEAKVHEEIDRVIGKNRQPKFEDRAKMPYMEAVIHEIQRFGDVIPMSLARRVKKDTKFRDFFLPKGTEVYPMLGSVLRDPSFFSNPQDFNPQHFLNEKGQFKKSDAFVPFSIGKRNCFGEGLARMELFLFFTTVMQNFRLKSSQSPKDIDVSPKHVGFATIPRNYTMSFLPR

CYP2B6 [22] = target: T5, CYP2B6; assay: biochemical
[23] = midazolam 2 mg + esmethadone 25 mg, mean ± SD
[24] = midazolam 2 mg alone, mean ± SD
[25] = midazolam + esmethadone vs midazolam alone
[26] = mRNA levels EC50, donor 1, 72 h
[27] = mRNA levels EC50, donor 2, 72 h
[28] = mRNA levels EC50, donor 3, 72 h
[29] = IC50,u (IC50 unbound), HLM, corrected for fraction unbound

T1 sequence (P10635 whole entry): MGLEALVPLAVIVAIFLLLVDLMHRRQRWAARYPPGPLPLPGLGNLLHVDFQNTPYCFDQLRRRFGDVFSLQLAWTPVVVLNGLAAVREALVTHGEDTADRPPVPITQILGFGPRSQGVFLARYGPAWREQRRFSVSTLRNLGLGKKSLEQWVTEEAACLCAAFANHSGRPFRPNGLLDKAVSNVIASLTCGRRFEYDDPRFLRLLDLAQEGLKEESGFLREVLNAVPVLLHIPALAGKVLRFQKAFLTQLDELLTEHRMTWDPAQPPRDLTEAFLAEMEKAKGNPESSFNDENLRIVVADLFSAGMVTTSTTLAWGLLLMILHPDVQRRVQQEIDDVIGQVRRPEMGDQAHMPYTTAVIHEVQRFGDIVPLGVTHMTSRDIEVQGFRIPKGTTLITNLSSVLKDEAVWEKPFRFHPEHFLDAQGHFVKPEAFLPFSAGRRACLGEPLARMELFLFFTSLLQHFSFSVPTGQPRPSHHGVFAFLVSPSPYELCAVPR

## OCc1ncc2n1-c1ccc(Cl)cc1C(c1ccccc1F)=NC2 [1′-hydroxymidazolam]
CYP3A4 [1]; midazolam 2 mg + esmethadone 25 mg (day 19, after repeated dosing), mean ± SD
  Cmax: 13,100 ± 4930 pg/mL
CYP3A4 [1]; [23]
  AUC0–inf: 42,700 ± 15100 h*pg/mL
  AUC0–t: 41,100 ± 14,500 h*pg/mL
CYP3A4 [1]; midazolam 2 mg + esmethadone 25 mg, median (range)
  Tmax: 0.925 (0.500–2.00)* h
CYP3A4 [1]; [24]
  AUC0–inf: 11,600 ± 8260 h*pg/mL
  AUC0–t: 10,700 ± 7360 h*pg/mL
CYP3A4 [1]; midazolam 2 mg alone, median (range)
  Tmax: 0.500 (0.500–0.750) h
CYP3A4 [1]; midazolam 2 mg oral alone (day 1), plasma, mean ± SD
  Cmax: 5440 ± 3520 pg/mL
CYP3A4 [1]; [25]
  Increase of AUC by esmethadone: 3.84 fold and 3.8 fold
  Increase of Cmax by esmethadone: 2.4 fold

## COc1ccc2c(c1)[C@]13CCCC[C@@H]1[C@H](C2)N(C)CC3 [dextromethorphan]
CYP2D6 [2]; dextromethorphan 30 mg + esmethadone 75 mg
  CL/F: 907 ± 715 L/h
CYP2D6 [2]; dextromethorphan 30 mg alone
  CL/F: 4560 ± 3280 L/h
CYP2D6 [2]
  Increase of exposure (AUC) by esmethadone: 2.71 fold
CYP2D6 [2]; human, plasma, oral, 30 mg
  AUC(0-inf): 31.2 ng·h/mL
  AUC(0-t): 26.6 ng·h/mL
  Tmax: 2.5 h
  Vd/F: 39000 L
  half-life: 7.15 ± 3.29 h
CYP2D6 [2]; human, plasma, 30 mg
  Cmax: 2.2 ± 3.8 ng/mL

## CN1CC[C@@]23CCCC[C@@H]2[C@@H]1Cc1ccc(O)cc13 [dextrorphan]
CYP2D6 [2]
  Increase of exposure (AUC) by esmethadone: 3.11 fold
CYP2D6 [2]; human, plasma, oral, 30 mg
  AUC(0-inf): 27.2 ng·h/mL
  AUC(0-t): 26.3 ng·h/mL
  half-life: 5.64 ± 4.97 h
CYP2D6 [2]; human, plasma, 30 mg
  Cmax: 4.9 ± 2.62 ng/mL

## CCC(=O)C(C[C@H](C)N(C)C)(c1ccccc1)c1ccccc1 [esmethadone]
CYP1A2 [3]; [26]
  EC50 at 72 h: 25.7 µM
CYP1A2 [3]; [27]
  EC50 at 72 h: 3.75 µM
CYP1A2 [3]; [28]
  EC50 at 72 h: 26.3 µM
[4]
  Cmax,u, maximal unbound concentration in plasma at steady state: 587 nM
[5]
  IC50: 139 µM
[5]; Supersomes
  Conclusion (inhibitory activity): Yes
UGT1A6
  Conclusion (inhibitory activity): No
CYP2C8 [6]
  IC50: > 200 µM
CYP2D6 [2]; clinical, esmethadone 75 mg loading dose
  CYP2D6 inhibitor category (FDA guidelines): moderate inhibitor of CYP2D6
CYP2C9 [7]
  IC50: > 200 µM
UGT1A1
  IC50: > 200 µM
UGT1A1; HLM
  Conclusion (inhibitory activity): Yes
CYP2C9 [8]
  Conclusion (inhibitory activity): Yes
[9]
  Stability under equilibrium dialysis testing conditions: stable
CYP3A4 [1]; clinical, esmethadone 25 mg once daily
  Effect of esmethadone on CYP3A4 activity: negligible effect
CYP2B6 [10]; [26]
  EC50 at 72 h: 4.3 µM
CYP2B6 [10]; [27]
  EC50 at 72 h: 5.36 µM
CYP2B6 [10]; [28]
  EC50 at 72 h: 4.12 µM
CYP1A2 [11]
  Conclusion (inhibitory activity): No
OCT1
  IC50: 1.67 µM
UGT1A9
  IC50: > 200 µM
UGT1A9; HLM
  Conclusion (inhibitory activity): Yes
CYP3A4 [12]; esmethadone 25 mg co-administered with cobicistat
  Maximum observed concentration (text, concentration–time profiles): 130 ± 22.5 ng/mL
CYP3A4 [12]; esmethadone + cobicistat vs alone
  Increase of total exposure (AUC0–inf) by cobicistat: 32%
CYP3A4 [12]; human, in vivo, 25 mg
  AUC(0-inf): 4430 ± 1370 ng·h/mL
  AUC(0-t): 4100 ± 1210 ng·h/mL
CYP3A4 [12]; human, in vivo, po, 25 mg
  Cmax: 131 ± 31.5 ng/mL
Study 3
  Tmax: 3 h
CYP2C8 [13]
  Conclusion (inhibitory activity): Yes
CYP2D6 [14]; HLM
  Type of inhibition: mixed (competitive and non-competitive) inhibition
CYP2D6 [14]; HLM, esmethadone 0.2–200 μM
  Conclusion (inhibitory activity): Yes
CYP2D6 [14]; IC50, HLM, dextromethorphan O-demethylase
  IC50: 9.6 µM and 9.63 µM
CYP2D6 [14]; [29]
  IC50: 8.28 µM
CYP2D6 [14]; Ki, HLM, five substrate concentrations 2–50 μM
  Ki: 2.02 µM
CYP2D6 [14]; Ki,u (unbound Ki), HLM, corrected for fraction unbound
  Ki: 1.74 µM
[15]
  Tolerability: well tolerated
P-glycoprotein (P-gp)
  IC50: 9.28 µM
UGT1A3
  IC50: > 200 µM
UGT1A3; HLM
  Conclusion (inhibitory activity): Yes
CYP2C19 [16]; IC50, HLM
  IC50: 174 µM
CYP2C19 [16]; [29]
  IC50: 150 µM
UGT1A4
  IC50: > 200 µM
UGT1A4; HLM
  Conclusion (inhibitory activity): Yes
CYP2C9 [17]; [26]
  EC50 at 72 h: 1.05 µM
CYP2C9 [17]; [28]
  EC50 at 72 h: 18.1 µM
CYP2C19 [18]
  Conclusion (inhibitory activity): Yes
CYP2C8 [19]; [26]
  EC50 at 72 h: 2.85 µM
CYP2C8 [19]; [28]
  EC50 at 72 h: 5.27 µM
UGT2B7
  IC50: > 200 µM
UGT2B7; HLM
  Conclusion (inhibitory activity): Yes
CYP3A4 [20]
  Increase of CYP3A4 enzyme activity: 5.2 ± 4.8 fold
  Increase of CYP3A4 mRNA: 21.4 ± 1.1 fold
CYP2B6 [21]
  Conclusion (inhibitory activity): Yes
Study 1
  Fecal excretion of the component: no fecal excretion
  Percent of the total plasma radioactivity exposure through 24 h post-dose: 70.4%
  Radioactivity excreted in urine: 53.9 % of the dose
Study 1; healthy male subjects
  Mean exposure (AUC0.5–24) in plasma: 1200 ng eq. h/g
Study 1; mean across subjects
  Urinary excretion of the component: 13 % of the dose
CYP2A6
  IC50: > 200 µM
CYP2A6; HLM, esmethadone 0.2–200 μM
  Conclusion (inhibitory activity): Yes
CYP2B6 [22]
  IC50: > 200 µM

## CCC(=O)C(C[C@@H](C)N(C)C)(c1ccccc1)c1ccccc1 [levomethadone]
[4]; oral methadone
  Time to maximum observed concentration (Tmax): 3 h

## CCC(=O)C(CC(C)N(C)C)(c1ccccc1)c1ccccc1 (centres unmarked) [methadone]
[4]
  Higher concentration associated with a single nucleotide polymorphism of P-gp: 32.9%
  Oral bioavailability, inter-subject range: 36–100%
[4]; similar for the two enantiomers
  Oral bioavailability: 70–80%

## Cc1ncc2n1-c1ccc(Cl)cc1C(c1ccccc1F)=NC2 [midazolam, reference compound]
CYP3A4 [1]; human, in vivo, 2 mg
  AUC(0-inf): 26.8 ng·h/mL
  AUC(0-t): 25.5 ng·h/mL
  Tmax: 0.5 h
  Vd/F: 571 ± 182 L
  half-life: 5.12 ± 1.92 h
CYP3A4 [1]; human, in vivo, po, 2 mg
  Cmax: 11500 pg/mL
CYP3A4 [1]; [23]
  CL/F: 84.5 ± 27.5 L/h
CYP3A4 [1]; [24]
  CL/F: 83.8 ± 27.9 L/h

## oxy-esmethadone glucuronide
Study 1
  Percent of the total plasma radioactivity exposure through 24 h post-dose: 0.473%

Reference: publication PMC11035515 (Drugs in R&D, 2023)
